Test results: ChEMBL document CHEMBL1201862, “PubChem BioAssay data set” (2004)
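Five compound concentrations were applied to cells in 96-well plates for 48 hours; endpoints were derived by simple linear interpolation of the resulting dose-response curve. The concentration for 50% growth inhibition is given as GI50.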 Activity calls are given as the source filed them. Rule as the data show it: active = GI50 up to about 1.1 µM and inactive = higher.

How the values were obtained:
Assay in all cases: NCI anticancer screen, dose series, 48 h
[1] = test system: MDA-MB-435
[2] = test system: SK-MEL-5
[3] = test system: UO-31
[4] = test system: A549
[5] = test system: RPMI-8226
[6] = test system: OVCAR-3
[7] = test system: SF-295
[8] = test system: A498
[9] = test system: MDA-MB-231
[10] = test system: HCT-15
[11] = test system: NCI-H226
[12] = test system: M14
[13] = test system: SK-MEL-28
[14] = test system: EKVX
[15] = test system: TK-10
[16] = test system: NCI-H23
[17] = test system: CAKI-1
[18] = test system: Hs-578T
[19] = test system: OVCAR-8
[20] = test system: MOLT-4

## CN(C)Cc1cc(C(=O)O)cc(CN(C)C)c1O
[1]
  GI50: > 100 µM (inactive)
[2]
  GI50: > 100 µM (inactive)
[3]
  GI50: > 100 µM (inactive)
[4]
  GI50: > 100 µM (inactive)
[5]
  GI50: > 100 µM (inactive)
[6]
  GI50: > 100 µM (inactive)
[7]
  GI50: > 100 µM (inactive)
[8]
  GI50: > 100 µM (inactive)
[9]
  GI50: > 100 µM (inactive)
[10]
  GI50: > 100 µM
[11]
  GI50: > 100 µM (inactive)
[12]
  GI50: > 100 µM (inactive)
[13]
  GI50: > 100 µM (inactive)
[14]
  GI50: > 100 µM (inactive)
[15]
  GI50: > 100 µM (inactive)
[16]
  GI50: > 100 µM (inactive)
[17]
  GI50: > 100 µM (inactive)
[18]
  GI50: > 100 µM (inactive)
[19]
  GI50: > 100 µM (inactive)

## COc1cc(C2c3cc4c(cc3OC(Nc3ccccc3)C2C)OCO4)cc(OC)c1OC (configuration not stated)
[1]
  GI50: 0.139 µM (active)
[20]
  GI50: 0.416 µM (active)
[3]
  GI50: 2.09 µM (inactive)
[4]
  GI50: 1.11 µM (active)
[5]
  GI50: 0.608 µM (active)
[6]
  GI50: 0.323 µM (active)
[7]
  GI50: 0.333 µM (active)
[8]
  GI50: 0.324 µM (active)
[9]
  GI50: 2.8 µM (inactive)
[10]
  GI50: 0.494 µM
[11]
  GI50: 1.13 µM (inactive)
[12]
  GI50: 0.381 µM (active)
[13]
  GI50: 1.61 µM (inactive)
[14]
  GI50: 1.31 µM (inactive)
[15]
  GI50: 23.6 µM (inactive)
[16]
  GI50: 0.991 µM (active)
[17]
  GI50: 0.555 µM (active)
[18]
  GI50: 0.479 µM (active)
[19]
  GI50: 1.44 µM (inactive)

## Cc1cn([C@H]2[C@@H](CO)C[C@H]2O)c(=O)[nH]c1=O
[1]
  GI50: > 100 µM (inactive)
[2]
  GI50: > 100 µM (inactive)
[20]
  GI50: > 100 µM (inactive)
[3]
  GI50: > 100 µM (inactive)
[4]
  GI50: > 100 µM (inactive)
[5]
  GI50: > 100 µM (inactive)
[6]
  GI50: > 100 µM (inactive)
[7]
  GI50: > 100 µM (inactive)
[8]
  GI50: > 100 µM (inactive)
[9]
  GI50: > 100 µM (inactive)
[10]
  GI50: > 100 µM
[11]
  GI50: > 100 µM (inactive)
[13]
  GI50: > 100 µM (inactive)
[14]
  GI50: > 100 µM (inactive)
[15]
  GI50: > 100 µM (inactive)
[16]
  GI50: > 100 µM (inactive)
[17]
  GI50: > 100 µM (inactive)
[18]
  GI50: > 100 µM (inactive)
[19]
  GI50: > 100 µM (inactive)

## O=C1/C(=C\c2ccc(Br)cc2)CCCc2ccccc21
[1]
  GI50: 19.2 µM (inactive)
[20]
  GI50: 18.1 µM (inactive)
[3]
  GI50: 14.6 µM (inactive)
[4]
  GI50: 31.6 µM (inactive)
[5]
  GI50: 17.1 µM (inactive)
[6]
  GI50: 20.8 µM (inactive)
[7]
  GI50: 22 µM (inactive)
[8]
  GI50: 23.8 µM (inactive)
[9]
  GI50: 18.5 µM (inactive)
[10]
  GI50: 12.4 µM
[11]
  GI50: 14.4 µM (inactive)
[12]
  GI50: 29.6 µM (inactive)
[13]
  GI50: 18.9 µM (inactive)
[14]
  GI50: 17.5 µM (inactive)
[15]
  GI50: 18.7 µM (inactive)
[16]
  GI50: 17.1 µM (inactive)
[17]
  GI50: 29.3 µM (inactive)
[18]
  GI50: 17.3 µM (inactive)
[19]
  GI50: 15 µM (inactive)

## Cc1sc2ccccc2[n+]1CCC(=O)O
[1]
  GI50: > 100 µM (inactive)
[2]
  GI50: > 100 µM (inactive)
[4]
  GI50: > 100 µM (inactive)
[5]
  GI50: > 100 µM (inactive)
[6]
  GI50: > 100 µM (inactive)
[7]
  GI50: > 100 µM (inactive)
[8]
  GI50: > 100 µM (inactive)
[9]
  GI50: > 100 µM (inactive)
[10]
  GI50: > 100 µM
[11]
  GI50: > 100 µM (inactive)
[12]
  GI50: > 100 µM (inactive)
[13]
  GI50: > 100 µM (inactive)
[14]
  GI50: > 100 µM (inactive)
[15]
  GI50: > 100 µM (inactive)
[16]
  GI50: > 100 µM (inactive)
[17]
  GI50: > 100 µM (inactive)
[18]
  GI50: > 100 µM (inactive)
[19]
  GI50: > 100 µM (inactive)

## CC(=O)O[C@H]1C(=O)[C@]2(C)[C@@H](OC(=O)OCCC(O)CO)C[C@H]3OC[C@@]3(OC(C)=O)[C@H]2[C@H](OC(=O)c2ccccc2)[C@]2(O)C[C@H](OC(=O)[C@H](O)[C@@H](NC(=O)c3ccccc3)c3ccccc3)C(C)=C1C2(C)C (some centres not stated)
[1]
  GI50: < 0.01 µM (active)
[2]
  GI50: 0.0172 µM (active)
[20]
  GI50: < 0.0106 µM (active)
[3]
  GI50: 8.61 µM (inactive)
[4]
  GI50: 0.035 µM (active)
[5]
  GI50: < 0.01 µM (active)
[6]
  GI50: < 0.01 µM (active)
[7]
  GI50: 0.193 µM (active)
[8]
  GI50: 0.783 µM (active)
[9]
  GI50: 0.0288 µM (active)
[10]
  GI50: 2.14 µM
[11]
  GI50: < 0.0228 µM (active)
[12]
  GI50: 0.0461 µM (active)
[14]
  GI50: 0.121 µM (active)
[15]
  GI50: 2.4 µM (inactive)
[16]
  GI50: < 0.0127 µM (active)
[17]
  GI50: 2.26 µM (inactive)
[18]
  GI50: < 0.01 µM (active)
[19]
  GI50: 0.0463 µM (active)

## Cc1nc(Nc2ccc(F)cc2)c2sc(=S)n(-c3ccc(F)cc3)c2n1
[1]
  GI50: 10.8 µM (inactive)
[2]
  GI50: 14.6 µM (inactive)
[3]
  GI50: 16.5 µM (inactive)
[4]
  GI50: 16 µM (inactive)
[5]
  GI50: 5.01 µM (inactive)
[6]
  GI50: 17.1 µM (inactive)
[7]
  GI50: 14.3 µM (inactive)
[8]
  GI50: 16 µM (inactive)
[9]
  GI50: 13.9 µM (inactive)
[10]
  GI50: 3.09 µM
[11]
  GI50: 16.1 µM (inactive)
[12]
  GI50: 2.94 µM (inactive)
[13]
  GI50: 14.7 µM (inactive)
[14]
  GI50: 13.1 µM (inactive)
[15]
  GI50: 14.5 µM (inactive)
[16]
  GI50: 4.24 µM (inactive)
[17]
  GI50: 18.3 µM (inactive)
[18]
  GI50: 14.5 µM (inactive)
[19]
  GI50: 15.6 µM (inactive)
